Data from patent US20220363665A1, “QUINOLINE COMPOUNDS FOR THE TREATMENT OF AUTOIMMUNE DISEASE” (Hoffmann-La Roche Inc., priority 2019, published 2022).

Experiments:
human TLR9 = target: T1, human TLR9 (Homo sapiens, UniProt Q9NR96); assay: HEK293-Blue-hTLR-9 cells assay (SEAP reporter, ODN2006 stimulation); assay type: cell-based; conditions: HEK293-Blue-hTLR9 cells, ODN2006, 20 hrs
T1 construct: host or cells: HEK293 (HEK-Blue hTLR9)
T1 sequence (Q9NR96 26-1032): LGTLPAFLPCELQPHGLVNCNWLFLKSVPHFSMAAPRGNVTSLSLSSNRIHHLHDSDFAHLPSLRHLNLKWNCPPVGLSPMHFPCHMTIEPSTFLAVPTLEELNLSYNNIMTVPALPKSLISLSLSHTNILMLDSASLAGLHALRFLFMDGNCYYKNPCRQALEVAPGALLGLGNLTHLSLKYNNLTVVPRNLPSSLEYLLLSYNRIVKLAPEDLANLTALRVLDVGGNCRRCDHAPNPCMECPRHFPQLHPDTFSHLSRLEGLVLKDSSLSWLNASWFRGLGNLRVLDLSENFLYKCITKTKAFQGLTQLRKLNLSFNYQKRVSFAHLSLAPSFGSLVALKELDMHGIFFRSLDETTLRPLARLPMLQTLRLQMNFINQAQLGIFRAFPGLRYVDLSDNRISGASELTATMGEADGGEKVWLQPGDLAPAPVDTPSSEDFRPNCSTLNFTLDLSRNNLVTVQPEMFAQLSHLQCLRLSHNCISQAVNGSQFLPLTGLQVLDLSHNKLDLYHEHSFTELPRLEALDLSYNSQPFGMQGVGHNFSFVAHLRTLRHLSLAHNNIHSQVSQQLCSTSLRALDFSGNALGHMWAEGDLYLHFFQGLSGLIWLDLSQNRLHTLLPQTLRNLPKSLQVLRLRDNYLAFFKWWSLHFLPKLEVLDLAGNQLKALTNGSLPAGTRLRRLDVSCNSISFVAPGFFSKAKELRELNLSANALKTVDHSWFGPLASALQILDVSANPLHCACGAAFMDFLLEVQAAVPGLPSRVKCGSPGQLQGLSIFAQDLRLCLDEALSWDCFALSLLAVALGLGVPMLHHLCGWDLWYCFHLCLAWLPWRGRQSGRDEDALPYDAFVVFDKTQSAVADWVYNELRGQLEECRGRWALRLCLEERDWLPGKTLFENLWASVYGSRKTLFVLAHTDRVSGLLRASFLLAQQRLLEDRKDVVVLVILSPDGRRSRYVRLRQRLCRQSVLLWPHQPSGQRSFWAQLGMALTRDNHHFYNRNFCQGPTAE
Description: The following tests were carried out in order to determine the activity of the compounds of formula (I) in HEK293-Blue-hTLR-7/8/9 cells assay.
HEK293-Blue-hTLR-9 Cells Assay:
A stable HEK293-Blue-hTLR-9 cell line was purchased from InvivoGen (Cat. #. hkb-htlr9, San Diego, Calif., USA). These cells were originally designed for studying the stimulation of human TLR9 by monitoring the activation of NF-κB. A SEAP (secreted embryonic alkaline phosphatase) reporter gene was placed under the control of the […] minimal promoter fused to five NF-κB and AP-1-binding sites. The SEAP was induced by activating NF-κB and AP-1 via stimulating HEK-Blue hTLR9 cells with TLR9 ligands. Therefore the reporter expression was declined by TLR9 antagonist under the stimulation of a ligand, such as ODN2006 (Cat. #: tlrl-2006-1, Invivogen, San Diego, Calif., USA), for incubation of 20 hrs. The cell culture supernatant SEAP reporter activity was determined using QUANTI-Blue™ kit (Cat. #: rep-qbl, Invivogen, San Diego, Calif., USA) at a wavelength of 640 nm, a detection medium that turns purple or blue in the presence of alkaline phosphatase.
HEK293-Blue-hTLR9 cells were incubated at a density of […] cells/mL in a volume of 170 μL, in a 96-well plate in Dulbecco's Modified Eagle's medium (DMEM) containing 4.5 g/L glucose, 50 U/mL penicillin, […], […], 2 mM L-glutamine, 10% (v/v) heat-inactivated fetal bovine serum with addition of 20 μL test compound in a serial dilution in the presence of final DMSO at 1% and 10 μL of 20 uM ODN2006 in above DMEM, perform incubation under 37° C. in a CO2 incubator for 20 hrs. Then 20 μL of the supernatant from each well was incubated with 180 μL Quanti-blue substrate solution at 37° C. for 2 hrs and the absorbance was read at 620˜655 nm using a spectrophotometer. The signalling pathway that TLR9 activation leads to downstream NF-κB activation has been widely accepted, and therefore similar reporter assay was modified for evaluating TLR9 antagonist.

LYSA solubility assay = assay type: physicochemical; conditions: for solubility thermodynamic: thermodynamic from solid
Description: LYSA study is used to determine the aqueous solubility of tested compounds. Samples are prepared in duplicate from 10 mM DMSO stock solution. After evaporation of DMSO with a centrifugal vacuum evaporator, compounds are dissolved in a 0.05 M phosphate buffer (pH 6.5), stirred for one hr and shaken for two hrs. After one night, the solutions are filtered using a microtiter filter plate. Then the filtrate and its 1/10 dilution are analyzed by HPLC-UV. In addition, a four-point calibration curve is prepared from the 10 mM stock solutions and used for the solubility determination of the compounds. The results are in μg/mL. In case the percentage of sample measured in solution after evaporation divided by the calculated maximum of sample amount is bigger than 80%, the solubility is reported as bigger than this value.

[1] = 0.05 M phosphate buffer, pH 6.5, aqueous buffer
[2] = 0.05 M phosphate buffer (pH 6.5)

IC50 (human TLR9) | solubility thermodynamic (LYSA solubility assay; [1]) | LYSA (LYSA solubility assay; [2]) | SMILES | solubility thermodynamic (LYSA solubility assay; aqueous buffer, 0.05 M phosphate buffer (pH 6.5))
42.7 µM | > 600 µg/mL |  | CC(NC(=O)[C@H]1CN(c2ccc(C(F)(F)F)c3ncccc23)C[C@@H](C)O1)C1CN(C)CCO1 (single isomer, unassigned) [Example 35A] | 
50.2 µM |  | >625.0 µg/mL | CC(NC(=O)[C@H]1CN(c2ccc(C(F)(F)F)c3ncccc23)C[C@@H](C)O1)C1CN(C)CCO1 (single isomer, unassigned) [Example 35B] | 
23 µM | > 650 µg/mL |  | C[C@@H]1CN(c2ccc(C(F)(F)F)c3ncccc23)C[C@H](C(=O)NC2C3CNCC2COC3)O1 (single isomer, unassigned) [Example 46A] | 
15.3 µM |  | >667.0 µg/mL | C[C@@H]1CN(c2ccc(C(F)(F)F)c3ncccc23)C[C@H](C(=O)NC2C3CNCC2COC3)O1 (single isomer, unassigned) [Example 46B] | 
10.7 µM | > 660 µg/mL |  | C[C@@H]1CN(c2ccc(C(F)(F)F)c3ncccc23)C[C@H](C(=O)NC2CC3CNCC32)O1 (single isomer, unassigned) [Example 49A] | 
7.3 µM |  | >690.0 µg/mL | C[C@@H]1CN(c2ccc(C(F)(F)F)c3ncccc23)C[C@H](C(=O)NC2CC3CNCC32)O1 (single isomer, unassigned) [Example 49B] | 
7.7 µM |  | >710.0 µg/mL | C[C@@H]1CN(c2ccc(C(F)(F)F)c3ncccc23)C[C@H](C(=O)NC2CC3CNCC32)O1 (single isomer, unassigned) [Example 49C] | 

Second part, the compound before the results:

SMILES | IC50 (human TLR9) | solubility thermodynamic (LYSA solubility assay; [1]) | LYSA (LYSA solubility assay; [2]) | solubility thermodynamic (LYSA solubility assay; aqueous buffer, 0.05 M phosphate buffer (pH 6.5))
C[C@@H]1CN(c2ccc(C(F)(F)F)c3ncccc23)C[C@H](C(=O)N[C@@H]2CNC[C@@H]2F)O1 (single isomer, unassigned) [Example 2A] | 41 µM | > 580 µg/mL |  | 
C[C@@H]1CN(c2ccc(C(F)(F)F)c3ncccc23)C[C@H](C(=O)N[C@H]2CNC[C@H]2F)O1 (single isomer, unassigned) [Example 2B] | 34.6 µM | > 625 µg/mL |  | 
C[C@@H]1CN(c2ccc(C(F)(F)F)c3ncccc23)C[C@H](C(=O)NC2CC3CCCC(C2)N3)O1 (single isomer, unassigned) [Example 34A] | 8.5 µM | > 620 µg/mL |  | 
C[C@@H]1CN(c2ccc(C(F)(F)F)c3ncccc23)C[C@H](C(=O)NC2CC3CCCC(C2)N3)O1 (single isomer, unassigned) [Example 34B] | 10 µM |  | >610.0 µg/mL | 
C[C@@H]1CN(c2ccc(C(F)(F)F)c3ncccc23)C[C@H](C(=O)NC2CC3CCC(C2)N3)O1 (single isomer, unassigned) [Example 47A] | 10.1 µM | > 620 µg/mL |  | 
C[C@@H]1CN(c2ccc(C(F)(F)F)c3ncccc23)C[C@H](C(=O)NC2CC3CCC(C2)N3)O1 (single isomer, unassigned) [Example 47B] | 10.5 µM |  | >605.0 µg/mL | 
C[C@H]1C[C@@H](N)CN(c2ccc(C(F)(F)F)c3ncccc23)C1 [Example 1, (3R,5S)-5-methyl-1-[8-(trifluoromethyl)-5-quinolyl]piperidin-3-amine] | 9.7 µM |  |  | 
C[C@@H]1CN(c2ccc(C(F)(F)F)c3ncccc23)C[C@H](C(=O)NC2CNC[C@@H]2F)O1 (stereo partly drawn) [Example 2, cis-(2R,6R)-N-(4-fluoropyrrolidin-3-yl)-6-methyl-4-[8-(trifluoromethyl)-5-quinolyl]morpholine-2-carboxamide] | 51.8 µM | > 585 µg/mL |  | 
C[C@@H]1CN(c2ccc(C(F)(F)F)c3ncccc23)C[C@H](C(=O)NCC2CN(C)CCO2)O1 (stereo partly drawn) [Example 3, (2R,6R)-6-methyl-N-[(4-methylmorpholin-2-yl)methyl]-4-[8-(trifluoromethyl)-5-quinolyl]morpholine-2-carboxamide] | 81.9 µM | > 690 µg/mL |  | 
C[C@@H]1CN(c2ccc(C(F)(F)F)c3ncccc23)C[C@H](C(=O)NCC2CCCCN2C)O1 (stereo partly drawn) [Example 4, (2R,6R)-6-methyl-N-[(1-methyl-2-piperidyl)methyl]-4-[8-(trifluoromethyl)-5-quinolyl]morpholine-2-carboxamide] | 11.4 µM | > 660 µg/mL |  | 
C[C@@H]1CN(c2ccc(C(F)(F)F)c3ncccc23)C[C@H](C(=O)NC2CCN(C)CC2)O1 [Example 5, (2R,6R)-6-methyl-N-(1-methyl-4-piperidyl)-4-[8-(trifluoromethyl)-5-quinolyl]morpholine-2-carboxamide] | 15.5 µM | > 655 µg/mL |  | 
C[C@@H]1CN(c2ccc(C(F)(F)F)c3ncccc23)C[C@H](C(=O)NCC(C)(C)N)O1 [Example 6, (2R,6R)-N-(2-amino-2-methyl-propyl)-6-methyl-4-[8-(trifluoromethyl)-5-quinolyl]morpholine-2-carboxamide] | 29.8 µM | > 640 µg/mL |  | 
C[C@@H]1CN(c2ccc(C(F)(F)F)c3ncccc23)C[C@H](C(=O)N2CC(N)C2)O1 [Example 7, (3-aminoazetidin-1-yl)-[(2R,6R)-6-methyl-4-[8-(trifluoromethyl)-5-quinolyl]morpholin-2-yl]methanone] | 68.5 µM | > 605 µg/mL |  | 
C[C@@H]1CN(c2ccc(C(F)(F)F)c3ncccc23)C[C@H](C(=O)NC2CCCNCC2)O1 (stereo partly drawn) [Example 8, (2R,6R)-N-(azepan-4-yl)-6-methyl-4-[8-(trifluoromethyl)-5-quinolyl]morpholine-2-carboxamide] | 10.3 µM | > 680 µg/mL |  | 
C[C@@H]1CN(c2ccc(C(F)(F)F)c3ncccc23)C[C@H](C(=O)NC2CN(C)CC23CC3)O1 (stereo partly drawn) [Example 9, (2R,6R)-6-methyl-N-(5-methyl-5-azaspiro[2.4]heptan-7-yl)-4-[8-(trifluoromethyl)-5-quinolyl]morpholine-2-carboxamide] | 10.9 µM |  |  | > 685 µg/mL
C[C@@H]1CN(c2ccc(C(F)(F)F)c3ncccc23)C[C@H](C(=O)N2CCC(N)C2)O1 (stereo partly drawn) [Example 10, (3-aminopyrrolidin-1-yl)-[(2R,6R)-6-methyl-4-[8-(trifluoromethyl)-5-quinolyl]morpholin-2-yl]methanone] | 18.4 µM | > 655 µg/mL |  | 
Cc1ccc(N2C[C@@H](C)C[C@@H](N)C2)c2cccnc12 [Example 15, (3R,5S)-5-methyl-1-(8-methyl-5-quinolyl)piperidin-3-amine] | 14 µM |  |  | 
